These results are taken from US5635477A, “Cyclic compounds useful as inhibitors of platelet glycoprotein IIB/IIIA” (The DuPont Merck Pharmaceutical Company, priority 1995, dated 1997).

For this assay, the target named is agonist-induced platelet aggregation (Homo sapiens, UniProt P05106+P08514). The experiment in a line: Platelet Aggregation Assay. To be noted: human PRP; agonist-induced aggregation. It is filed as cell-based. On the procedure: Blood was collected into 10 ml citrated Vacutainer tubes.

Non-standard residues stand in square brackets, D forms with d. Residues, ends and D or L forms follow the SMILES beside them. NMePhe(4-CH2NH2) = CN[C@@H](Cc1ccc(CN)cc1)C(=O)O; NMeR = CN[C@@H](CCCNC(=N)N)C(=O)O; dPhg = N[C@@H](C(=O)O)c1ccccc1; dNle = CCCC[C@@H](N)C(=O)O; 3Amb = NCc1cccc(C(=O)O)c1; dAbu = CC[C@@H](N)C(=O)O; βAla = NCCC(=O)O; Sar = CNCC(=O)O

Chain of agonist-induced platelet aggregation (P08514 32-1039): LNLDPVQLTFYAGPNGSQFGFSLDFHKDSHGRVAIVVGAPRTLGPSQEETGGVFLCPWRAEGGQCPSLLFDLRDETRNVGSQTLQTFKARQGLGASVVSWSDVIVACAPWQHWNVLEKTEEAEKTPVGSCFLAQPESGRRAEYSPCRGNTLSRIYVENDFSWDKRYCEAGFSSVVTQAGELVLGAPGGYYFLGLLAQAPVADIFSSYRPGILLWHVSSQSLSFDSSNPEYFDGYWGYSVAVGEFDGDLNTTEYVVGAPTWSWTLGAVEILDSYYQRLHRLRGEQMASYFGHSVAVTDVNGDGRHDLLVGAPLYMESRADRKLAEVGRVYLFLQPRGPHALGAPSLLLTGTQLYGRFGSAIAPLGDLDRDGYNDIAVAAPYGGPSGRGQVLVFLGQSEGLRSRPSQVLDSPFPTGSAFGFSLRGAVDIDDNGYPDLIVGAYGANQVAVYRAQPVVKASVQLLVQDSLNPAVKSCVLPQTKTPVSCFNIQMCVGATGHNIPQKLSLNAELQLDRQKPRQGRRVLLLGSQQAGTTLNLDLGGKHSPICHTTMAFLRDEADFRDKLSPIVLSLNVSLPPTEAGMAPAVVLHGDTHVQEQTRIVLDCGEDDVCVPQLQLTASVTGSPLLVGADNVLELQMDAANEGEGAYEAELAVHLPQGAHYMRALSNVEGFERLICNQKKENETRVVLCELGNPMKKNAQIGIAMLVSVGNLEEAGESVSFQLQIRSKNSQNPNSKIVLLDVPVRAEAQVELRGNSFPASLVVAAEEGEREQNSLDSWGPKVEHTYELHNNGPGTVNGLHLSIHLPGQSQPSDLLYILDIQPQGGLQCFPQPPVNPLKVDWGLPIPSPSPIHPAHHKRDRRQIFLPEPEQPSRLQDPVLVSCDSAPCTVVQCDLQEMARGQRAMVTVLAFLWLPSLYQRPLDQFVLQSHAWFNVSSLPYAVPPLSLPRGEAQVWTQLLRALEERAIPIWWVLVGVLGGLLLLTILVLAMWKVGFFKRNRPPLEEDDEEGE
Chain of agonist-induced platelet aggregation (P05106 27-788): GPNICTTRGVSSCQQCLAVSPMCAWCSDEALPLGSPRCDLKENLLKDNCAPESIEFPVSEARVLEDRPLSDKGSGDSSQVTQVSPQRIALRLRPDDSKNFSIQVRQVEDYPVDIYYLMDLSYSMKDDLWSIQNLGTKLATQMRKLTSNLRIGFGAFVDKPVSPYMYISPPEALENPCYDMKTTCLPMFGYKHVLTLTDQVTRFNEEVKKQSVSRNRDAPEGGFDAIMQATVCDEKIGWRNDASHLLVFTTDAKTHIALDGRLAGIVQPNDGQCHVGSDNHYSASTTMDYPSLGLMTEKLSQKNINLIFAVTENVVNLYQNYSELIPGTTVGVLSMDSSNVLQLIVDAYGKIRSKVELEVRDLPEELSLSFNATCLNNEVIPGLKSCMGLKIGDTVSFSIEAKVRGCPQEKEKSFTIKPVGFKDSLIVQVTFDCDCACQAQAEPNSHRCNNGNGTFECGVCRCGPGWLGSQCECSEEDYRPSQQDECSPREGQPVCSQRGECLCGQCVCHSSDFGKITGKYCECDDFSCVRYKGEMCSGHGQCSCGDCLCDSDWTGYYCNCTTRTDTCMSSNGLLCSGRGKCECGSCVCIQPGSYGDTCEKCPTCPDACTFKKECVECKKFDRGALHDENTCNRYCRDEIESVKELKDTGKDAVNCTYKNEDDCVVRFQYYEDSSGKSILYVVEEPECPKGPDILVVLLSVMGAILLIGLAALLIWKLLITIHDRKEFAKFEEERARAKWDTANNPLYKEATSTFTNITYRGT

The compound `CC(C)[C@H]1NC(=O)c2cccc(c2)CNC(=O)C(C)(CC(=O)O)NC(=O)CNC(=O)[C@H](CCCNC(=N)N)N(C)C1=O` (single isomer, unassigned) [Example 63, cyclo-(D-Val-NMeArg-Gly-α-MeAsp-Mamb)] yielded an IC50 of 1 to 10 µM.
`CC(C)[C@H]1NC(=O)c2cccc(c2)CNC(=O)C(C)(CC(=O)O)NC(=O)CNC(=O)[C@H](CCCNC(=N)N)N(C)C1=O` (single isomer, unassigned) [Example 63a, cyclo-(D-Val-NMeArg-Gly-α-MeAsp-Mamb)]: the IC50 was 10 to 100 µM.
Regarding `CC(C)[C@H]1NC(=O)c2ccc3c(c2)C(CCC3)NC(=O)[C@H](CC(=O)O)NC(=O)CNC(=O)[C@H](CCCNC(=N)N)N(C)C1=O` (single isomer, unassigned) [Example 89a, cyclo-(D-Val-NMeArg-Gly-Asp-aminotetralincarboxylic acid)], the IC50 was less than 1 µM.
To `CC(C)[C@H]1NC(=O)c2ccc3c(c2)C(CCC3)NC(=O)[C@H](CC(=O)O)NC(=O)CNC(=O)[C@H](CCCNC(=N)N)N(C)C1=O` (single isomer, unassigned) [Example 89b, cyclo-(D-Val-NMeArg-Gly-Asp-aminotetralincarboxylic acid)] belongs less than 1 µM.
The same measure for `CN1C(=O)CNC(=O)c2cccc(c2)CNC(=O)[C@H](CC(=O)O)NC(=O)CNC(=O)[C@@H]1CCCNC(=N)N` [Example 1, cyclo-(Gly-NMeArg-Gly-Asp-Mamb)] (cyclo([NMeR]GD[3Amb]G)): less than 1 µM; for `C[C@H]1NC(=O)c2cccc(c2)CNC(=O)[C@H](CC(=O)O)NC(=O)CNC(=O)[C@H](CCCNC(=N)N)N(C)C1=O` [Example 2, cyclo-(D-Ala-NMeArg-Gly-Asp-Mamb)] (cyclo([NMeR]GD[3Amb][dA])): less than 1 µM.
For the compound `CC(C)[C@H]1NC(=O)c2cccc(c2)CNC(=O)[C@H](CC(=O)O)NC(=O)CNC(=O)[C@@H](CCCNC(=N)N)N(C)C1=O` [Example 4b, cyclo-(D-Val-D-NMeArg-Gly-Asp-Mamb)], the IC50 lay within 1 to 10 µM.
To `CC(C)C[C@H]1NC(=O)c2cccc(c2)CNC(=O)[C@H](CC(=O)O)NC(=O)CNC(=O)[C@H](CCCNC(=N)N)N(C)C1=O` [Example 5, cyclo-(D-Leu-NMeArg-Gly-Asp-Mamb)] (cyclo([NMeR]GD[3Amb][dL])) belongs less than 1 µM; to `CCCC[C@H]1NC(=O)c2cccc(c2)CNC(=O)[C@H](CC(=O)O)NC(=O)CNC(=O)[C@H](CCCNC(=N)N)N(C)C1=O` [Example 7, cyclo-(D-Nle-NMeArg-Gly-Asp-Mamb)] (cyclo([NMeR]GD[3Amb][dNle])), less than 1 µM; to `CN1C(=O)[C@@H](c2ccccc2)NC(=O)c2cccc(c2)CNC(=O)[C@H](CC(=O)O)NC(=O)CNC(=O)[C@@H]1CCCNC(=N)N` [Example 11, cyclo-(D-Phg-NMeArg-Gly-Asp-Mamb)] (cyclo([NMeR]GD[3Amb][dPhg])), less than 1 µM.
To `CN1C(=O)[C@@H](Cc2ccccc2)NC(=O)c2cccc(c2)CNC(=O)[C@H](CC(=O)O)NC(=O)CNC(=O)[C@@H]1CCCNC(=N)N` [Example 12, cyclo-(D-Phe-NMeArg-Gly-Asp-Mamb)] (cyclo([NMeR]GD[3Amb][dF])) belongs less than 1 µM; to `CN1C(=O)[C@@H](CCCCN)NC(=O)c2cccc(c2)CNC(=O)[C@H](CC(=O)O)NC(=O)CNC(=O)[C@@H]1CCCNC(=N)N` [Example 13f, cyclo-(D-Lys-NMeArg-Gly-Asp-Mamb)] (cyclo([NMeR]GD[3Amb][dK])), less than 1 µM; to `CC[C@@H](C)[C@H]1NC(=O)c2cccc(c2)CNC(=O)[C@H](CC(=O)O)NC(=O)CNC(=O)[C@H](CCCNC(=N)N)N(C)C1=O` [Example 13r, cyclo-(D-Ile-NMeArg-Gly-Asp-Mamb)] (cyclo([NMeR]GD[3Amb][dI])), less than 1 µM.
The compound `CN1CC(=O)N(C)[C@@H](CCCNC(=N)N)C(=O)NCC(=O)N[C@@H](CC(=O)O)C(=O)NCc2cccc(c2)C1=O` [Example 18, cyclo-(NMeGly-NMeArg-Gly-Asp-Mamb)] (cyclo([NMeR]GD[3Amb][Sar])) gave a 50% inhibitory concentration (IC50) of less than 1 µM.
In the case of `CN1C(=O)[C@H]2CCCN2C(=O)c2cccc(c2)CNC(=O)[C@H](CC(=O)O)NC(=O)CNC(=O)[C@@H]1CCCNC(=N)N` [Example 25, cyclo-(D-Pro-NMeArg-Gly-Asp-Mamb)] (cyclo([NMeR]GD[3Amb][dP])), the IC50 was less than 1 µM.
Consider `CN1C(=O)CCNC(=O)c2cccc(c2)CNC(=O)[C@H](CC(=O)O)NC(=O)CNC(=O)[C@@H]1CCCNC(=N)N` [Example 28c, cyclo-(b-Ala-NMeArg-Gly-Asp-Mamb)] (cyclo([NMeR]GD[3Amb][βAla])), for which the IC50 is less than 1 µM.
Compound `CN1C(=O)[C@@H](Cc2ccc(O)cc2)NC(=O)c2cccc(c2)CNC(=O)[C@H](CC(=O)O)NC(=O)CNC(=O)[C@@H]1CCCNC(=N)N` [Example 28f, cyclo-(D-Tyr-NMeArg-Gly-Asp-Mamb)] (cyclo([NMeR]GD[3Amb][dY])) displayed an IC50 of less than 1 µM.
The same measure for `N=C(N)NCCC[C@@H]1NC(=O)CNC(=O)c2cccc(c2)CNC(=O)[C@H](CC(=O)O)NC(=O)CNC1=O` [Example 29, cyclo-(Gly-Arg-Gly-Asp-Mamb)] (cyclo(RGD[3Amb]G)): 1 to 10 µM; for `C[C@H]1NC(=O)c2cccc(c2)CNC(=O)[C@H](CC(=O)O)NC(=O)CNC(=O)[C@H](CCCNC(=N)N)NC1=O` [Example 30, cyclo-(D-Ala-Arg-Gly-Asp-Mamb)] (cyclo(RGD[3Amb][dA])): 1 to 10 µM.
The compound `CC(C)[C@H]1NC(=O)c2cccc(c2)CNC(=O)[C@H](CC(=O)O)NC(=O)CNC(=O)[C@H](CCCNC(=N)N)NC1=O` [Example 32, cyclo-(D-Val-Arg-Gly-Asp-Mamb)] yielded an IC50 of 1 to 10 µM.
`CC(C)C[C@H]1NC(=O)c2cccc(c2)CNC(=O)[C@H](CC(=O)O)NC(=O)CNC(=O)[C@H](CCCNC(=N)N)NC1=O` [Example 33, cyclo-(D-Leu-Arg-Gly-Asp-Mamb)] (cyclo(RGD[3Amb][dL])) showed a concentration for half-maximal inhibition (IC50) of 1 to 10 µM.
To `CC[C@H]1NC(=O)c2cccc(c2)CNC(=O)[C@H](CC(=O)O)NC(=O)CNC(=O)[C@H](CCCNC(=N)N)NC1=O` [Example 34, cyclo-(D-Abu-Arg-Gly-Asp-Mamb)] (cyclo(RGD[3Amb][dAbu])) belongs 1 to 10 µM; to `N=C(N)NCCC[C@@H]1NC(=O)[C@@H](CO)NC(=O)c2cccc(c2)CNC(=O)[C@H](CC(=O)O)NC(=O)CNC1=O` [Example 35, cyclo-(D-Ser-Arg-Gly-Asp-Mamb)] (cyclo(RGD[3Amb][dS])), 1 to 10 µM.
The same measure for `N=C(N)NCCC[C@@H]1NC(=O)[C@@H](Cc2ccccc2)NC(=O)c2cccc(c2)CNC(=O)[C@H](CC(=O)O)NC(=O)CNC1=O` [Example 36, cyclo-(D-Phe-Arg-Gly-Asp-Mamb)] (cyclo(RGD[3Amb][dF])): 10 to 100 µM; for `N=C(N)NCCC[C@@H]1NC(=O)[C@H](Cc2ccccc2)NC(=O)c2cccc(c2)CNC(=O)[C@H](CC(=O)O)NC(=O)CNC1=O` [Example 37, cyclo-(Phe-Arg-Gly-Asp-Mamb)] (cyclo(RGD[3Amb]F)): 10 to 100 µM; for `CC(C)[C@H]1NC(=O)c2cccc(c2)CNC(=O)[C@H](CC(=O)O)NC(=O)CNC(=O)[C@H](Cc2ccc(CN)cc2)N(C)C1=O` [Example 40, cyclo-(D-Val-NMeAmf-Gly-Asp-Mamb)] (cyclo([dV][NMePhe(4-CH2NH2)]GD[3Amb])): less than 1 µM.
